Several values for one entry are separate records, joined by “and”; a condition that tells them apart may be missing. Equal entries are not always repeated. Where two headings read alike, the source gives them in different places.
Columns and labels:
[1] = molecular target: SARS-CoV-2 M^pro (Severe acute respiratory syndrome coronavirus 2, UniProt P0DTD1); assay: biochemical; assay type: biochemical; details: for inhibition at 20 µM: read-out: SARS-CoV-2 M^pro enzyme inhibition (%) 20 μM; for inhibition at 100 µM: 100 μM compound, read-out: SARS-CoV-2 M^pro enzyme inhibition (%) 100 μM
[2] = molecular target: T1, SARS-CoV-2 PLpro (Severe acute respiratory syndrome coronavirus 2, UniProt P0DTD1); assay: biochemical; set-up: papain-like protease (PL^pro; domain of nsp3); purchased Anaspec (Fremont, USA) AS-72263; details: for inhibition at 20 µM: read-out: SARS-CoV-2 PLpro inhibition % enzyme inhibition (20 µM); for SARS-CoV-2 PLpro inhibition % enzyme inhibition (20 µM): commercial Anaspec assay kit
[3] = molecular target: T1, SARS-CoV-2 PLpro; assay: PL^pro fluorogenic peptide cleavage assay (substrate Z-RLRGG-AMC); assay type: biochemical; set-up: papain-like protease (PL^pro; domain of nsp3); His; purchased BPS Biosciences BPS-100735-1; details: for inhibition at 20 µM: read-out: SARS-CoV-2 PL^pro enzyme inhibition (%) 20 μM; for inhibition at 100 µM: read-out: SARS-CoV-2 PL^pro enzyme inhibition (%) 100 μM
[4] = Cytotoxicity in Calu-3 cells; details: human
[5] = tested on: SARS-CoV-2; assay: Antiviral assay in Calu-3 cells (spike staining); assay type: cell-based; details: for antiviral activity against SARS-CoV-2 (in words): two different cell lines (Caco-2, Calu-3)
[6] = tested on: SARS-CoV-2; assay: Antiviral assay in Caco-2 cells; assay type: cell-based; details: Severe acute respiratory syndrome coronavirus 2, Caco-2, read-out: Anti SARS-CoV-2 activity Caco-2 IC50 (µM)
[7] = Cytotoxicity in Caco-2 cells; details: human
[8] = molecular target: M^pro (Severe acute respiratory syndrome coronavirus 2, UniProt P0DTD1); assay type: binding; details: 2 μM protein, 50 μM ligand
[9] = in vitro; details: human
[10] = 20 μM compound, buffer with 5 mM DTT, for values marked a the relative standard deviation of 6% applies
[11] = Severe acute respiratory syndrome coronavirus 2, Calu-3, 48 h, read-out: Anti-SARS-CoV-2 activity IC50 (μM)
[12] = Severe acute respiratory syndrome coronavirus 2, Calu-3 cells, MOI 0.01, 48 h postinfection, read-out: Anti-SARS-CoV-2 activity IC50
[13] = read-out: SARS-CoV-2 M^pro IC50, buffer with 5 mM DTT

## C=C(C)[C@H](CC=C(C)C)Cc1c(O)cc(OC)c2c1O[C@H](c1ccc(O)cc1O)CC2=O [Compound 21, kurarinone]
[1]; [10]
  inhibition at 20 µM: 30.2%
[1]; buffer with 5 mM DTT
  inhibition at 100 µM: 99.2 ± 2.5%

## COc1cc(CNC(=O)CCCC/C=C/C(C)C)ccc1O [Compound 31, trans-capsaicin]
[2]
  inhibition at 20 µM: 32.4 ± 13.7%
[3]
  inhibition at 20 µM: 5.6 ± 9.7%
  inhibition at 100 µM: 5.3 ± 0.1%

## Oc1ccc([C@@H]2c3c(O)cc(O)cc3[C@@H]3c4c(O)cc(O)cc4[C@H]2[C@H]3c2ccc(O)cc2)cc1 [Compound 25, ampelopsin F]
[1]; [10]
  inhibition at 20 µM: 18.9 ± 2.2%
[1]; buffer with 5 mM DTT
  inhibition at 100 µM: 37.5 ± 0.8%

## C=CCc1ccc(O)c(-c2cc(CC=C)ccc2O)c1 [Compound 36, magnolol]
[2]
  inhibition at 20 µM: 58.2 ± 11.5%
[4]
  CC50: > 20 µM
[5]; [11]
  IC50: 26.8 µM
[5]
  antiviral activity against SARS-CoV-2 (in words): moderately acting antiviral compounds
[6]
  IC50: 17.7 µM
[7]
  CC50: 47.3 µM
[3]
  inhibition at 20 µM: 4.3 ± 6.6%

## COCCN1C(=O)C(O)=C(C(=O)c2ccc(OC)c(C)c2)C1c1ccc(O)cc1 (stereo not drawn) [Compound 39]
[2]
  inhibition at 20 µM: 26 ± 34.7%
[3]
  inhibition at 20 µM: 10 ± 5.4%
  inhibition at 100 µM: 42 ± 1.3%

## COc1cc(CC(CO)Oc2ccc(CCCO)cc2OC)ccc1O (stereo not drawn) [Compound 47]
[2]
  inhibition at 20 µM: -55.8 ± 32.4%
[3]
  inhibition at 20 µM: 8.8 ± 5.6%
  inhibition at 100 µM: 0.5 ± 0.8%

## COc1ccc(CNC(=O)c2ccc(Cn3c(=O)c(C)nc4ccccc43)cc2)cc1 [Compound 46]
[3]
  inhibition at 20 µM: 12.7 ± 6.9%
  inhibition at 100 µM: 14 ± 3.4%

## CC(C)(O)CCc1c(-c2ccc(O)cc2O)oc2c3c(cc(O)c2c1=O)OC(C)(C)C=C3 [Compound 24, morusinol]
[1]; [10]
  inhibition at 20 µM: 23.1 ± 2.8%
[1]; buffer with 5 mM DTT
  inhibition at 100 µM: 71.2 ± 1.9%

## O=C(/C=C/c1ccc(O)c(O)c1)OC1CC(OC(=O)/C=C/c2ccc(O)c(O)c2)(C(=O)O)CC(O)C1O (stereo not drawn) [Compound 19, cynarine]
[1]; buffer with 5 mM DTT
  inhibition at 100 µM: 9.8 ± 13.3%

## CCC(CC)COC(=O)[C@H](C)N[P@](=O)(OC[C@H]1O[C@@](C#N)(c2ccc3c(N)ncnn23)[C@H](O)[C@@H]1O)Oc1ccccc1 [Compound 1, remdesivir, reference compound]
[4]
  CC50: > 0.1 µM
[5]; [12]
  IC50: 0.00125 µM

## C=CCc1ccc(O)c(-c2ccc(O)c(CC=C)c2)c1 [Compound 35, honokiol]
[2]
  SARS-CoV-2 PLpro inhibition % enzyme inhibition (20 µM): significant enzyme inhibition
  inhibition at 20 µM: 80.6 ± 9.9%
[4]
  CC50: > 20 µM
[5]; [11]
  IC50: 28.4 µM
[5]
  antiviral activity against SARS-CoV-2 (in words): moderately acting antiviral compounds
[6]
  IC50: 16.2 µM
[7]
  CC50: 91.2 µM
[3]
  inhibition at 20 µM: 4.9 ± 4.6%
  inhibition at 100 µM: 5.3 ± 3.2%

## CC(C)=CCc1cc(-c2coc3cc(O)ccc3c2=O)ccc1O [Compound 20, neobavaisoflavone]
[1]
  inhibition at 20 µM: 18%

## O=C(CCCN1C(=O)c2ccccc2N2C(=O)c3ccccc3C12)NCCc1cnc[nH]1 (stereo not drawn) [Compound 28]
[1]; [10]
  inhibition at 20 µM: 14.1 ± 5.1%
[1]; buffer with 5 mM DTT
  inhibition at 100 µM: 59.7 ± 1%

## COc1ccc(S(=O)(=O)NCc2ccc(C(=O)NCc3ccccc3)cc2)cc1 [Compound 44]
[2]
  inhibition at 20 µM: 18.5 ± 16.6%
[3]
  inhibition at 20 µM: 6.4 ± 4.2%
  inhibition at 100 µM: 1.5 ± 1.2%

## COc1ccc2c(C)c(CC(=O)Nc3c(C)cccc3C(C)C)c(=O)oc2c1OC [Compound 45]
[2]
  inhibition at 20 µM: -2.6 ± 36.1%
[3]
  inhibition at 20 µM: 9 ± 4.3%
  inhibition at 100 µM: 2.6 ± 0.1%

## CC(C)=CCC/C(C)=C/Cc1c(O)ccc([C@@H]2CC(=O)c3c(O)cc(O)cc3O2)c1O [Compound 11, sanggenol A]
[1]; [10]
  inhibition at 20 µM: 31.9%
[1]; buffer with 5 mM DTT
  inhibition at 100 µM: 98.3 ± 2.4%

## CC1=C[C@H](c2c(O)ccc([C@@H]3CC(=O)c4c(O)cc(O)cc4O3)c2O)[C@@H](C(=O)c2ccc(O)cc2O)[C@H](c2ccc(O)cc2O)C1 [Compound 16, kuwanon L]
[1]; [10]
  inhibition at 20 µM: 70.4%
[1]; buffer with 5 mM DTT
  inhibition at 100 µM: 97.6 ± 2.5%
[1]; read-out: SARS-CoV-2 M^pro IC50
  IC50: 5.25 µM and 5.3 µM
[4]
  CC50: 97.7 µM
[8]
  STD signals: exhibited STD signals

## COc1cc([C@@H]2Oc3c(O)cc([C@H]4Oc5cc(O)cc(O)c5C(=O)[C@@H]4O)cc3[C@H]2CO)ccc1O [Compound 33, silicristin]
[3]
  inhibition at 20 µM: 3.4 ± 7.8%
  inhibition at 100 µM: 19.8 ± 2%

## O=C(CCc1ccccc1)C[C@H]1C[C@H](c2ccccc2)c2c(cc(/C=C/c3ccccc3)oc2=O)O1 [Compound 17, katsumadain A]
[1]; [10]
  inhibition at 20 µM: 5%
[1]; buffer with 5 mM DTT
  inhibition at 100 µM: 47.7 ± 2.8%

## Cn1c(=O)c2c(nc(SCC(=O)Nc3ccc4c(c3)OCO4)n2Cc2cccc(Cl)c2)n(C)c1=O [Compound 29]
[1]; buffer with 5 mM DTT
  inhibition at 100 µM: 7.3 ± 10.2%

## CC(C)=CCC12Oc3cc(O)c([C@@H]4C=C(C)C[C@H](c5ccc(O)cc5O)[C@H]4C(=O)c4ccc(O)cc4O)c(O)c3C(=O)C1(O)Oc1cc(O)ccc12 (stereo partly drawn) [Compound 14, sanggenon D]
[1]; SARS-CoV-2 M^pro IC50 (μM), buffer with 5 mM DTT
  IC50: 13.8 µM and 13.9 µM
[4]
  CC50: 46.2 µM
[8]
  STD signals: exhibited STD signals
[5]; [12]
  IC50: 18.5 µM

## O=C(/C=C/c1ccc(O)c(O)c1)O[C@@H](C(=O)O)[C@@H](OC(=O)/C=C/c1ccc(O)c(O)c1)C(=O)O [Compound 18, chicoric acid]
[1]; [10]
  inhibition at 20 µM: 0.7%
[1]; buffer with 5 mM DTT
  inhibition at 100 µM: 11.5 ± 0.6%

## CN1[C@@H](CC(=O)c2ccccc2)CCC[C@H]1C[C@H](O)c1ccccc1 [Compound 32, lobelin]
[2]
  inhibition at 20 µM: 26.6 ± 11%
[3]
  inhibition at 20 µM: 3.7 ± 2.6%

## COc1ccc(C(=O)N(CCN(Cc2ccccc2)C(=O)c2ccc(OC)cc2)Cc2ccccc2)cc1 [Compound 27]
[1]; [10]
  inhibition at 20 µM: 4.8 ± 4%
[1]; buffer with 5 mM DTT
  inhibition at 100 µM: 28.2 ± 8.3%

## COc1cc(C2Oc3cc([C@H]4Oc5cc(O)cc(O)c5C(=O)[C@@H]4O)ccc3OC2CO)ccc1O (stereo partly drawn) [Compound 34, silibinin]
[2]
  inhibition at 20 µM: 50.3 ± 14.3%
[5]; [11]
  IC50: > 100 µM
[9]
  CC50: > 100 µM
[3]
  inhibition at 20 µM: 6.5 ± 3.6%

## COc1cc2c(cc1OC)/C(=C/C(=O)c1ccc(CSC)cc1)NCC2 [Compound 41]
[3]
  inhibition at 20 µM: 9.6 ± 5.8%
  inhibition at 100 µM: 14.6 ± 13.1%

## CC(C)=CCc1c(-c2ccc(O)cc2O)oc2c3c(cc(O)c2c1=O)OC(C)(C)C=C3 [Compound 23, morusin]
[1]; [13]
  IC50: 33.5 µM
[5]; [12]
  IC50: 24.9 µM
[9]
  CC50: 25.2 µM

## COc1ccc(CNC(=O)c2cn(CCC(C)C)c(=O)c3ccccc23)cc1OC [Compound 48]
[2]
  inhibition at 20 µM: 32 ± 4.2%
[3]
  inhibition at 20 µM: 8.2 ± 2.3%
  inhibition at 100 µM: 0.3 ± 0.5%

## O=C(CC(c1ccccc1)c1ccccc1)NCCCc1ccccc1 [Compound 40]
[2]
  inhibition at 20 µM: 41.5 ± 16.5%
[3]
  inhibition at 20 µM: 1.6 ± 8.8%
  inhibition at 100 µM: 5 ± 2.6%

## COc1cc(O)c(C(=O)/C=C/c2ccccc2)c(O)c1[C@H]1C[C@H](c2ccccc2)Oc2c(OC)c(O)cc(OC)c21 [Compound 26, sarcandrone B]
[1]; [10]
  inhibition at 20 µM: 1.2 ± 2.5%
[1]; buffer with 5 mM DTT
  inhibition at 100 µM: 7.5 ± 2.5%

## CC(C)(O)[C@H](O)COc1c2ccoc2cc2oc(=O)ccc12 [Compound 37, oxypeucedanin hydrate]
[2]
  SARS-CoV-2 PLpro inhibition % enzyme inhibition (20 µM): significant enzyme inhibition
  inhibition at 20 µM: 97.5 ± 14.6%
[5]; [11]
  IC50: > 100 µM
[9]
  CC50: > 100 µM

## CC(C)=CCc1c(-c2ccc(O)c3c2OC(C)(C)C=C3)oc2cc(O)cc(O)c2c1=O [Compound 22, kuwanon A]
[1]; [10]
  inhibition at 20 µM: 45.5 ± 7.1%
[1]; buffer with 5 mM DTT
  inhibition at 100 µM: 79.2 ± 2.4%
[1]; [13]
  IC50: 35.2 µM
[5]; [12]
  IC50: 35.6 µM
[9]
  CC50: 47.7 µM

## Cn1cc(CNC(=O)c2cc([N+](=O)[O-])ccc2Cl)cn1 [Compound 38]
[2]
  inhibition at 20 µM: 26.1 ± 15.2%
[3]
  inhibition at 20 µM: 3 ± 0.7%
  inhibition at 100 µM: 6.4 ± 4.6%

## COc1ccc(C(=O)COc2ccc3c(c2)O/C(=C\c2cc(OC)ccc2OC)C3=O)cc1 [Compound 43]
[2]
  inhibition at 20 µM: 13.5 ± 25.5%
[3]
  inhibition at 20 µM: 10 ± 5.4%
  inhibition at 100 µM: 14.3 ± 3.4%

Reference: article PMC9885530, “Identification of Natural Products Inhibiting SARS-CoV-2 by Targeting Viral Proteases: A Combined in Silico and in Vitro Approach” (Journal of Natural Products, 2023)
